This is an account of results in ChEMBL document CHEMBL1139216, “Discovery and refinement of a new structural class of potent peptide deformylase inhibitors” (J Med Chem, 2007).

For test [1], the target named is T1, Peptide deformylase 1A, chloroplastic/mitochondrial (Arabidopsis thaliana, UniProt Q9FV53).
T1 sequence (Q9FV53 whole entry): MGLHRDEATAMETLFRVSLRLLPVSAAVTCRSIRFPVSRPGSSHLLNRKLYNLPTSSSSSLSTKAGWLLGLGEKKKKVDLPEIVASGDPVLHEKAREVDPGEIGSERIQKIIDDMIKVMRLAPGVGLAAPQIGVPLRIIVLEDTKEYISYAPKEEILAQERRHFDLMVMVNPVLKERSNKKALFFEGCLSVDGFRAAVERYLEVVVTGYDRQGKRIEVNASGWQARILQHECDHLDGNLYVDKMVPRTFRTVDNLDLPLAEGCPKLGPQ

For test [2], the target named is T2, Peptide deformylase (Escherichia coli, UniProt Q9JN24).
T2 sequence (Q9JN24 whole entry): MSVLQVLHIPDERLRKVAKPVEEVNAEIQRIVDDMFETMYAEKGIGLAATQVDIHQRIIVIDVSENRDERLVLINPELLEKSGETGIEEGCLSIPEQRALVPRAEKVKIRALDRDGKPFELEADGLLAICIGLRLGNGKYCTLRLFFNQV

Test [3] has as its system Bacillus subtilis. As to the kind of experiment: Antibacterial activity against Bacillus subtilis MO3482. It is filed as functional.
Test [4] relates to Bacillus subtilis. As to the kind of experiment: Antibacterial activity against Bacillus subtilis D101. Type of test: functional.
Test [5] has as its system Escherichia coli. As to the kind of experiment: Antibacterial activity against Escherichia coli CAG1284. It is filed as functional.
The subject of test [6] is Bacillus subtilis. As to the kind of experiment: Antibacterial activity against Bacillus subtilis Y101. It is filed as functional.
Test [7] has as its system Bacillus subtilis. The test is described as follows: Antibacterial activity against Bacillus subtilis 168. Type of test: functional.
Test [8] has as its system Escherichia coli. As to the kind of experiment: Antibacterial activity against Escherichia coli JM101Tr. Type of test: functional.
The target in test [9] is T3, Peptide deformylase, mitochondrial (Homo sapiens, UniProt Q9HBH1).
T3 sequence (Q9HBH1 whole entry): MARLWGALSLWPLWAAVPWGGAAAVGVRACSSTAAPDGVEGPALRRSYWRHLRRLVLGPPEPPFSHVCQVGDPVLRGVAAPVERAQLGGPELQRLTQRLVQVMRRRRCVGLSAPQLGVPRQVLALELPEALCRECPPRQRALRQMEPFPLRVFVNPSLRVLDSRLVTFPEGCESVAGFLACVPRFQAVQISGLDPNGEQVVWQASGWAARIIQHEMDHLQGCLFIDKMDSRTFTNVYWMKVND

For test [10], the system named is Bacillus subtilis. The test is described as follows: Antibacterial activity against Bacillus subtilis. Type of test: functional.
Test [11] concerns Escherichia coli. As to the kind of experiment: Antibacterial activity against Escherichia coli K37. Type of test: functional.

One may read the IC50 as the concentration that gives 50% inhibition. Read a low IC50 as inhibition by little substance. The term MIC denotes the lowest concentration that inhibits growth of the organism. Lower therefore signals a more susceptible organism.

SMILES strings stand for the structures. In brackets after ≈: the same amount, converted by molar mass.

As to `CC(C)(C)OC(=O)NC(CNO)Cc1ccccc1` (stereo not given), the IC50 in [1] was above 1000 µM; in test [2] it was 52 µM.
In the case of `O=C(CO)Cc1c[nH]c2ccc(Br)cc12`, the MIC in test [3], in test [4], in test [5], in test [6], in [7] and in test [8] was above 300 µg/mL in each case. Also, the IC50 in [1] was 790 µM; in test [2], 560 µM.
Consider `CC(=O)SCC(=O)Cc1c[nH]c2ccccc12`, for which the IC50 was above 1000 µM in test [1] and 200 µM in [2].
With `Cc1[nH]c2ccc(Br)cc2c1CC(=O)NO`, the IC50 in [1] and in [9] was 450 µM throughout. Further, the values for the minimal inhibitory concentration (MIC) in test [8] and in [10] were above 300 µg/mL and 220 µg/mL (≈ 777 µM), respectively.
Regarding `COc1ccc2[nH]cc(CC(=O)NO)c2c1`, in test [1], the IC50 is above 1000 µM. Further, the minimal inhibitory concentration (MIC) in test [8] is above 300 µg/mL; in test [10], 155 µg/mL (≈ 704 µM).
On to `Cc1c(CN(O)C=O)c2cc(Br)ccc2n1S(=O)(=O)c1ccccc1`, for which the concentration for half-maximal inhibition (IC50) in test [1] stood at 35 µM; in [2], 0.03 µM; in test [9], 200 µM. Also, the minimal inhibitory concentration (MIC) in test [8] is 65 µg/mL (≈ 154 µM); in test [10] it was 35 µg/mL (≈ 82.7 µM).
In the case of `O=C(O)Cc1cn(C(=O)OCc2ccccc2)c2ccccc12`, the figures for the IC50 in [1] and in [2] were above 1000 µM and 300 µM, respectively.
As to `CC(C)(C)OC(=O)NC(Cc1ccccc1)CN(O)C=O` (stereo not given), the MIC is above 300 µg/mL in [3]; above 300 µg/mL in test [4]; 120 µg/mL (≈ 408 µM) in test [5]; 9 µg/mL (≈ 30.6 µM) in test [6]; above 300 µg/mL in test [7]; above 300 µg/mL in test [8]. Also, 0.05 µM corresponded to half-maximal inhibition in test [2] (IC50).
On to `CC(=O)SCC(=O)Cc1cn(C(=O)OCc2ccccc2)c2ccccc12`, for which the figures for the IC50 in test [1] and in test [2] were 500 µM and 350 µM, respectively.
Consider `O=C(CS)Cc1c[nH]c2ccc(Br)cc12`, for which the 50% inhibitory concentration (IC50) in test [1] was 200 µM; in test [2], 80 µM.
On to `Cc1c(CNO)c2cc(Br)ccc2n1S(=O)(=O)c1ccccc1`, for which the IC50 came out at 500 µM in [1] and 6 µM in test [2].
With `CC(=O)SCC(=O)Cc1c[nH]c2ccc(Br)cc12`, the IC50 in [1] amounted to 170 µM; in test [2], 120 µM.
Taken in the same sequence, the figures for `Cc1[nH]c2ccc(Br)cc2c1CNO` were above 250 µM and 50 µM.
For `CCCCC[C@H](CC(=O)NO)C(=O)N[C@H](C(=O)N1CCC[C@H]1CO)C(C)C` [ACTINONIN], the MIC in test [3] worked out at 1 µg/mL (≈ 2.59 µM); in test [4] it was 1 µg/mL (≈ 2.59 µM); in test [5], 0.125 µg/mL (≈ 0.324 µM); in [6], 0.125 µg/mL (≈ 0.324 µM); in test [11], 32 µg/mL (≈ 83 µM); in test [7], 1 µg/mL (≈ 2.59 µM). Besides, the MIC was determined as 34 µg/mL (≈ 88.2 µM) in test [8] and 1.3 µg/mL (≈ 3.37 µM) in test [10]. Also, the IC50 in test [1] was found to be 0.027 µM; in test [2], 0.01 µM.
In the case of `O=C(O)Cc1c[nH]c2ccccc12` [INDOLE-3-ACETIC ACID], the IC50 in [1] and in test [2] was above 1000 µM each time.
